Assay results: the supplement of paper PMC11451515

Key:
Conditions in all cases: 48 h
[1] = tested on: SEM cells; assay: AUC of viability dose-response curve (% viability x log10 dose units); higher = less sensitive
Outline: (§1)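 Leukemia cells adapted to each medium were seeded in 1536-well plates (500 or 1000 cells/well). They were dosed with library compounds in DMSO at 11 threefold doses, 47 μM to 0.79 nM, for 48 h at 37°C. CellTiter-Glo One luminescence was normalised per plate to DMSO and cell-free wells. Area under the curve was integrated by trapezoidal rule over log10 doses on a four-parameter log-logistic fit; curves exceeding full viability were scaled and curves failing quality control removed.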

[2] = tested on: P12-Ichikawa; assay: as above
Outline: as §1

[3] = tested on: NOMO1; assay: as above
Outline: as §1

[4] = tested on: SEM cells; assay: cell viability relative to DMSO control; higher = less cytotoxic
Outline: (§2)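 Viability is expressed as a percentage of DMSO wells within each plate, and cell-free wells serve as background. Seeding densities in the 1536-well plates (5 μl) were 500 cells/well for NOMO1 or SEM leukemia cells and 1000 cells/well for P12-Ichikawa. Each line was adapted for at least four passages in each medium. Library compounds in DMSO were pin-dosed at 47 μM to 0.79 nM (11 points, threefold), and CellTiter-Glo One luminescence was read after 48 h at 37°C.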

[5] = tested on: P12-Ichikawa; assay: as above
Outline: as §2

[6] = tested on: NOMO1; assay: as above
Outline: as §2

[7] = RPMI 5 mM glucose + 10% dialyzed FBS
[8] = HPLM + 10% dialyzed FBS, 0.000781 µM
[9] = HPLM + 10% dialyzed FBS, 0.00234 µM
[10] = HPLM + 10% dialyzed FBS, 0.00702 µM
[11] = HPLM + 10% dialyzed FBS, 0.0211 µM
[12] = HPLM + 10% dialyzed FBS, 0.0632 µM
[13] = HPLM + 10% dialyzed FBS, 0.19 µM
[14] = HPLM + 10% dialyzed FBS, 0.569 µM
[15] = HPLM + 10% dialyzed FBS, 1.71 µM
[16] = HPLM + 10% dialyzed FBS, 5.12 µM
[17] = HPLM + 10% dialyzed FBS, 15.4 µM
[18] = HPLM + 10% dialyzed FBS, 46.1 µM
[19] = RPMI 5 mM glucose + 10% FBS, 0.000781 µM
[20] = RPMI 5 mM glucose + 10% FBS, 0.00234 µM
[21] = RPMI 5 mM glucose + 10% FBS, 0.00702 µM
[22] = RPMI 5 mM glucose + 10% FBS, 0.0211 µM
[23] = RPMI 5 mM glucose + 10% FBS, 0.0632 µM
[24] = RPMI 5 mM glucose + 10% FBS, 0.19 µM
[25] = RPMI 5 mM glucose + 10% FBS, 0.569 µM
[26] = RPMI 5 mM glucose + 10% FBS, 1.71 µM
[27] = RPMI 5 mM glucose + 10% FBS, 5.12 µM
[28] = RPMI 5 mM glucose + 10% FBS, 15.4 µM
[29] = RPMI 5 mM glucose + 10% FBS, 46.1 µM
[30] = RPMI 5 mM glucose + 10% dialyzed FBS, 0.000781 µM
[31] = RPMI 5 mM glucose + 10% dialyzed FBS, 0.00234 µM
[32] = RPMI 5 mM glucose + 10% dialyzed FBS, 0.00702 µM
[33] = RPMI 5 mM glucose + 10% dialyzed FBS, 0.0211 µM
[34] = RPMI 5 mM glucose + 10% dialyzed FBS, 0.0632 µM
[35] = RPMI 5 mM glucose + 10% dialyzed FBS, 0.19 µM
[36] = RPMI 5 mM glucose + 10% dialyzed FBS, 0.569 µM
[37] = RPMI 5 mM glucose + 10% dialyzed FBS, 1.71 µM
[38] = RPMI 5 mM glucose + 10% dialyzed FBS, 5.12 µM
[39] = RPMI 5 mM glucose + 10% dialyzed FBS, 15.4 µM
[40] = RPMI 5 mM glucose + 10% dialyzed FBS, 46.1 µM

For `ClC1=CC\2=C(OC3=C(C=CC=C3)\N=C2N4CCNCC4)C=C1`, the “AUC of viability dose-response curve” value ([1]; HPLM + 10% dialyzed FBS) was 466, the “AUC of viability dose-response curve” value ([1]; RPMI 5 mM glucose + 10% FBS) was 437 and the “AUC of viability dose-response curve” value [1, 7] was 467. The “AUC of viability dose-response curve” value ([2]; HPLM + 10% dialyzed FBS) was 468, the “AUC of viability dose-response curve” value ([2]; RPMI 5 mM glucose + 10% FBS) was 438 and the “AUC of viability dose-response curve” value [2, 7] was 462. For the same compound, the “AUC of viability dose-response curve” value ([3]; HPLM + 10% dialyzed FBS) was 450, the “AUC of viability dose-response curve” value ([3]; RPMI 5 mM glucose + 10% FBS) was 434 and the “AUC of viability dose-response curve” value [3, 7] was 437. For the same compound, the cell viability [4, 8] was 110%, the cell viability [4, 9] was 90.9% and the cell viability [4, 10] was 114%. The cell viability [4, 11] was 108%, the cell viability [4, 12] was 117% and the cell viability [4, 13] was 116%. For the same compound, the cell viability [4, 14] was 112%, the cell viability [4, 15] was 105% and the cell viability [4, 16] was 119%. For the same compound, the cell viability [4, 17] was 95.2%, the cell viability [4, 18] was 89% and the cell viability [4, 19] was 94.5%. The cell viability [4, 20] was 49.6%, the cell viability [4, 21] was 95% and the cell viability [4, 22] was 90.4%. For the same compound, the cell viability [4, 23] was 94.1%, the cell viability [4, 24] was 93.3% and the cell viability [4, 25] was 103%. The cell viability [4, 26] was 99.7%, the cell viability [4, 27] was 104% and the cell viability [4, 28] was 89.3%. For the same compound, the cell viability [4, 29] was 86.8%, the cell viability [4, 30] was 104% and the cell viability [4, 31] was 80.1%. It also gave a cell viability [4, 32] of 113%, a cell viability [4, 33] of 106% and a cell viability [4, 34] of 117%. It also gave a cell viability [4, 35] of 105%, a cell viability [4, 36] of 111% and a cell viability [4, 37] of 107%. The cell viability [4, 38] was 119%, the cell viability [4, 39] was 103% and the cell viability [4, 40] was 91%. For the same compound, the cell viability [5, 8] was 100%, the cell viability [5, 9] was 104% and the cell viability [5, 10] was 113%. For the same compound, the cell viability [5, 11] was 103%, the cell viability [5, 12] was 109% and the cell viability [5, 13] was 101%. It also gave a cell viability [5, 14] of 107%, a cell viability [5, 15] of 109% and a cell viability [5, 16] of 99.7%. The cell viability [5, 17] was 98%, the cell viability [5, 18] was 95.5% and the cell viability [5, 19] was 103%. The cell viability [5, 20] was 105%, the cell viability [5, 21] was 107% and the cell viability [5, 22] was 105%. For the same compound, the cell viability [5, 23] was 93.8%, the cell viability [5, 24] was 90.6% and the cell viability [5, 25] was 99.6%. It also gave a cell viability [5, 26] of 95.2%, a cell viability [5, 27] of 90.3% and a cell viability [5, 28] of 87.7%. For the same compound, the cell viability [5, 29] was 87.8%, the cell viability [5, 30] was 100% and the cell viability [5, 31] was 102%. For the same compound, the cell viability [5, 32] was 100%, the cell viability [5, 33] was 104% and the cell viability [5, 34] was 99.3%. The cell viability [5, 35] was 99.7%, the cell viability [5, 36] was 99.1% and the cell viability [5, 37] was 92.5%. For the same compound, the cell viability [5, 38] was 89.3%, the cell viability [5, 39] was 98.3% and the cell viability [5, 40] was 88.6%. For the same compound, the cell viability [6, 8] was 106%, the cell viability [6, 9] was 111% and the cell viability [6, 10] was 106%. The cell viability [6, 11] was 94.5%, the cell viability [6, 12] was 105% and the cell viability [6, 13] was 103%. The cell viability [6, 14] was 118%, the cell viability [6, 15] was 91.1% and the cell viability [6, 16] was 91.7%. It also gave a cell viability [6, 17] of 83.3%, a cell viability [6, 18] of 90.7% and a cell viability [6, 19] of 87%. The cell viability [6, 20] was 90.1%, the cell viability [6, 21] was 95.9% and the cell viability [6, 22] was 94.8%. For the same compound, the cell viability [6, 23] was 88.7%, the cell viability [6, 24] was 101% and the cell viability [6, 25] was 100%. It also gave a cell viability [6, 26] of 87.7%, a cell viability [6, 27] of 86.5% and a cell viability [6, 28] of 83.7%. For the same compound, the cell viability [6, 29] was 84%, the cell viability [6, 30] was 101% and the cell viability [6, 31] was 84%. It also gave a cell viability [6, 32] of 94.3%, a cell viability [6, 33] of 91.1% and a cell viability [6, 34] of 92.1%. It also gave a cell viability [6, 35] of 90.7%, a cell viability [6, 36] of 93.3% and a cell viability [6, 37] of 90.6%. It also gave a cell viability [6, 38] of 90.7%, a cell viability [6, 39] of 88.4% and a cell viability [6, 40] of 91.1%.
